# Source: patent US20030134779A1, “Method and composition for treatment and/or prevention of antibiotic-resistant microorganism infections” (priority 2002, published 2003)
# Key:
# Format in all cases: cell-based, Staphylococcus aureus
# S. aureus SHY97-4320 [1] = assay: SDS-PAGE protein profile of whole cells; conditions: compound alone: 8 μg/ml penicillin G or 1 mg/ml LF; 4-h of growth
# Experimental: Staphylococcus aureus SHY97-4320 cells growth in MHB containing test compounds were suspended in electrophoresis sample buffer containing 2% sodium dodecyl sulfate (SDS) and 5% 2-mercaptoethanol to a final concentration of 0.1 g per ml. The samples were heated to 100° C. for 5 min before being loaded for electrophoresis on a discontinuous 0.1% SDS-polyacrylamide gel (SDS PAGE) with 6% polyacrylamide stacking gel and 10 or 12% polyacrylamide running gel. Gels were run on a Mini-Protean® II apparatus (Bio Rad laboratories, Richmond, Calif.). Protein profiles were visualised by staining with coomassie brilliant blue R-250 or by silver staining.
# [2] = system: β-lactamase activity of S. aureus SHY97-4320; assay: β-lactamase activity, nitrocefin assay, human LF; conditions: 8-μg/ml penicillin G alone
# Experimental: Penicillin G was purchased from Novopharm Limited (Toronto, Ontario, Canada). […] Antibiotic stock solutions were always freshly prepared and diluted to the desired concentration in Mueller Hinton broth (MHB) medium (Difco Laboratories, Detroit, MI). β-Lactamase activity was measured using a quantitative spectrophotometric assay with the chromogenic cephalosporin nitrocefin. Bacterial cells were first exposed to penicillin and/or LF during 4 and 22-h in broth. At each time point, the number of cfu/ml were determined and cells aliquots were centrifuged.
# The pellets were suspended in 10 mM HEPES buffer (pH 7.4) to an OD415 nm of 0.4 for PC-1 and 4 for strain SHY97-4320. Nitrocefin (100 μM) was added to 20 μl of cells in a final volume of 200 μl. Hydrolysis was measured at 486 nm on a Spectra Max 250 Microplate Spectrophotometer System of Molecular Device (Fisher Scientific, Ottawa, Canada). β-Lactamase activity was expressed as ΔO.D.486 nm/min and corrected for bacterial OD.
# S. aureus ATCC 25923 = assay: Cell morphology by transmission electron microscopy
# Experimental: (§1) Bacterial cells were grown overnight on MHA or MHB containing sub-MICs of penicillin G with or without LF or LFC. Microorganisms were prepared for transmission electron microscopy by fixation with glutaraldehyde followed by ferritin labelling. This method allows good- preservation of capsular material. Briefly, bacterial cells grown in the presence or absence of antibiotics were fixed in cacodylate buffer (0.1 M, pH 7.0) containing 5% (v/v) glutaraldehyde, for 2 h at 20° C. Fixed microorganims were suspended in cacodylate buffer and allowed to react with the polycationic ferritin (Sigma Chemicals, St-Louis, Mo.; final concentration 1.0 mg/ml) for 30 min at 20° C. The reaction was slowed down by 10-fold dilution with buffer, and the microorganisms were centrifuged and washed three times in cacodylate buffer. Bacterial cells were then immobilized in 4% (w/v) agar, washed 5 times in cacodylate buffer and post-fixed with 2% (w/v) osmium tetroxide for 2 h. Washings were repeated as above, and the samples dehydrated in a graded series of acetone washes. Samples were then washed twice in propylene oxide and embedded in Spurr low-viscosity resin. Thin sections were post-stained with uranyl acetate and lead citrate and examined with an electron microscope (Philips 201) at an accelerating voltage of 60 kV.
# S. aureus strains = assay: Disk diffusion susceptibility test and cefinase test; conditions: β-lactamase producing strains
# Experimental: For quality control, disk diffusion susceptibility tests, as recommended by the National Committee for Clinical Laboratory Standard, were performed on all strains using standard disk of various antibiotics. After 18 h of incubation at 37° C., the diameter of the zone of complete inhibition of bacterial growth around each disk was measured. Isolates were categorized as sensitive or resistant for a given antibiotic using the recommended interpretative guidelines of the manufacturer.
# S. aureus SHY97-4320 [3] = assay: Cell morphology by transmission electron microscopy
# Experimental: as §1, with “Microorganisms” for “Bacterial cells were grown overnight on MHA or MHB containing sub-MICs of penicillin G with or without LF or LFC. Microorganisms”
structure (smiles),measurement,setting,value
"CC1(C)S[C@@H]2[C@H](NC(=O)Cc3ccccc3)C(=O)N2[C@H]1C(=O)O [penicillin G, Penicillin G]","proteins of approximately 59, 42 and 27 kDa in protein profile",S. aureus SHY97-4320 [1],can be seen
same,β-lactamase activity,[2],present
same,cell morphology,"S. aureus ATCC 25923; penicillin G 0.0078 μg/ml alone, 18-h",induced formation of large symmetrically arranged pseudomulticellular staphylococci
same,cell morphology,S. aureus ATCC 25923; penicillin G 0.0078 μg/ml with LF 9.1 μg/ml,asymmetrically arranged pseudomulticellular staphylococci were formed
same,susceptibility by standard disk diffusion and cefinase test,S. aureus strains,resistance
same,cell morphology,"S. aureus SHY97-4320 [3]; penicillin G 8 μg/ml alone, 4-h",no visible effect
same,cell morphology,S. aureus SHY97-4320 [3]; penicillin G 8 μg/ml combined with LF 1 mg/ml,morphology changes were similar to that observed in the susceptible strain
